Data published in ChEMBL document CHEMBL1201862, “PubChem BioAssay data set” (2004).
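Grown in 96-well plates, cells were treated for 48 hours with each compound at five concentrations. Insufficient inhibition: endpoint recorded as highest concentration tested. GI50: concentration for 50% inhibition of growth.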 Calls of active or inactive are those of the source. Cut-off read from the data, not from the text of the source: active = GI50 up to about 1.1 µM and inactive = higher.

Experiments:
Assay in all cases: NCI anticancer screen, dose series, 48 h
[1] = test system: LOX IMVI
[2] = test system: RXF 393
[3] = test system: IGROV-1
[4] = test system: DMS-114
[5] = test system: NCI-H23
[6] = test system: SN12C
[7] = test system: SK-OV-3
[8] = test system: MOLT-4
[9] = test system: K562
[10] = test system: SK-MEL-28
[11] = test system: SNB-19
[12] = test system: SNB-78
[13] = test system: M19-MEL
[14] = test system: DLD-1
[15] = test system: COLO 205
[16] = test system: A549
[17] = test system: SNB-75
[18] = test system: SK-MEL-5
[19] = test system: UACC-257
[20] = test system: NCI-H522
[21] = test system: EKVX
[22] = test system: LXFL 529
[23] = test system: M14
[24] = test system: HL-60
[25] = test system: HCC 2998
[26] = test system: HOP-62
[27] = test system: SW-620
[28] = test system: TK-10
[29] = test system: UO-31
[30] = test system: HCT-116
[31] = test system: OVCAR-3
[32] = test system: HT-29
[33] = test system: ACHN
[34] = test system: NCI-H226
[35] = test system: OVCAR-8
[36] = test system: KM-20L2
[37] = test system: 786-0
[38] = test system: RPMI-8226
[39] = test system: Malme-3M
[40] = test system: KM12
[41] = test system: OVCAR-4
[42] = test system: SR
[43] = test system: HOP-92
[44] = test system: UACC-62
[45] = test system: SF-268
[46] = test system: CCRF-CEM
[47] = test system: SF-295
[48] = test system: HOP-18
[49] = test system: OVCAR-5
[50] = test system: NCI-H460
[51] = test system: CAKI-1
[52] = test system: SF-539
[53] = test system: U-251
[54] = test system: HCT-15
[55] = test system: SK-MEL-2
[56] = test system: DMS-273
[57] = test system: A498

With `COc1ccc(-c2cc(O)c3cc(OC)ccc3n2)cc1` the GI50 [1] was > 100 µM (inactive), the GI50 [2] was > 100 µM (inactive) and the GI50 [3] was > 100 µM (inactive). The GI50 [4] was > 100 µM (inactive), the GI50 [5] was > 100 µM (inactive) and the GI50 [6] was > 100 µM (inactive). The GI50 [7] was > 100 µM (inactive), the GI50 [8] was > 100 µM (inactive) and the GI50 [9] was > 100 µM (inactive). For the same compound, the GI50 [10] was > 100 µM (inactive), the GI50 [11] was > 100 µM (inactive) and the GI50 [12] was > 100 µM (inactive). The GI50 [13] was > 100 µM (inactive), the GI50 [14] was > 100 µM (inactive) and the GI50 [15] was > 100 µM (inactive). For the same compound, the GI50 [16] was > 100 µM (inactive), the GI50 [17] was 92.9 µM (inactive) and the GI50 [18] was > 100 µM (inactive). For the same compound, the GI50 [19] was > 100 µM (inactive), the GI50 [20] was > 100 µM (inactive) and the GI50 [21] was > 100 µM (inactive). For the same compound, the GI50 [22] was > 100 µM (inactive), the GI50 [23] was > 100 µM (inactive) and the GI50 [24] was > 100 µM (inactive). The GI50 [25] was 5.74 µM (inactive), the GI50 [26] was > 100 µM (inactive) and the GI50 [27] was > 100 µM (inactive). The GI50 [28] was > 100 µM (inactive), the GI50 [29] was > 100 µM (inactive) and the GI50 [30] was > 100 µM (inactive). For the same compound, the GI50 [31] was > 100 µM (inactive), the GI50 [32] was > 100 µM (inactive) and the GI50 [33] was > 100 µM (inactive). For the same compound, the GI50 [34] was > 100 µM (inactive), the GI50 [35] was > 100 µM (inactive) and the GI50 [36] was > 100 µM (inactive). The GI50 [37] was > 100 µM (inactive), the GI50 [38] was > 100 µM (inactive) and the GI50 [39] was > 100 µM (inactive). The GI50 [40] was > 100 µM (inactive), the GI50 [41] was > 100 µM (inactive) and the GI50 [42] was > 100 µM (inactive). The GI50 [43] was > 100 µM (inactive), the GI50 [44] was > 100 µM (inactive) and the GI50 [45] was 36.6 µM (inactive). For the same compound, the GI50 [46] was > 100 µM (inactive), the GI50 [47] was > 100 µM (inactive) and the GI50 [48] was > 100 µM (inactive). For the same compound, the GI50 [49] was > 100 µM (inactive).

`O=[N+]([O-])c1cc([N+](=O)[O-])c(/C=C/c2ccc(Cl)c(Cl)c2)cc1/C=C/c1ccc(Cl)c(Cl)c1` was tested, and the GI50 [50] was 30.4 µM (inactive), the GI50 [51] was 31.4 µM (inactive) and the GI50 [1] was 23.7 µM (inactive). The GI50 [2] was 20.8 µM (inactive), the GI50 [3] was 22.9 µM (inactive) and the GI50 [4] was 24.5 µM (inactive). For the same compound, the GI50 [5] was 20.4 µM (inactive), the GI50 [6] was 21.2 µM (inactive) and the GI50 [7] was 64.6 µM (inactive). For the same compound, the GI50 [8] was 23.2 µM (inactive), the GI50 [9] was 27.7 µM (inactive) and the GI50 [10] was 26.5 µM (inactive). The GI50 [11] was 25.6 µM (inactive), the GI50 [12] was 47.4 µM (inactive) and the GI50 [13] was 21.4 µM (inactive). For the same compound, the GI50 [15] was 18.7 µM (inactive), the GI50 [16] was 41.3 µM (inactive) and the GI50 [17] was 29 µM (inactive). For the same compound, the GI50 [52] was 21.9 µM (inactive), the GI50 [18] was 18.9 µM (inactive) and the GI50 [19] was 23.4 µM (inactive). The GI50 [20] was 21.5 µM (inactive), the GI50 [21] was 44.1 µM (inactive) and the GI50 [22] was 23.6 µM (inactive). For the same compound, the GI50 [23] was 23.1 µM (inactive), the GI50 [24] was 22.2 µM (inactive) and the GI50 [25] was 30.3 µM (inactive). The GI50 [27] was 28.2 µM (inactive), the GI50 [28] was 52.5 µM (inactive) and the GI50 [29] was 17.5 µM (inactive). The GI50 [31] was 17.5 µM (inactive), the GI50 [53] was 33 µM (inactive) and the GI50 [32] was 28.1 µM (inactive). For the same compound, the GI50 [33] was 22.5 µM (inactive), the GI50 [34] was 24.6 µM (inactive) and the GI50 [35] was 29.2 µM (inactive). The GI50 [54] was 21.2 µM, the GI50 [36] was 31 µM (inactive) and the GI50 [37] was 24.7 µM (inactive). The GI50 [38] was 19.3 µM (inactive), the GI50 [39] was 25.2 µM (inactive) and the GI50 [40] was 18.5 µM (inactive). For the same compound, the GI50 [41] was 38.7 µM (inactive), the GI50 [55] was 24.4 µM (inactive) and the GI50 [44] was 27.5 µM (inactive). For the same compound, the GI50 [56] was 28.4 µM (inactive), the GI50 [45] was 25.8 µM (inactive) and the GI50 [46] was 21.7 µM (inactive). For the same compound, the GI50 [57] was > 100 µM (inactive), the GI50 [47] was 25.6 µM (inactive) and the GI50 [49] was 36.1 µM (inactive).
